Source: PMC9386018, “A lymphatic-absorbed multi-targeted kinase inhibitor for myelofibrosis therapy” (Nature Communications, 2022)
Values joined by “and” are separate entries in the source; they are usually repeats but may differ in a detail not shown here. Equal values may be shown once.

Assays:
[1] = system: Caspase 3/7 activity in SET-2 cells; assay: SET-2 Caspase activation assay (Caspase-Glo 3/7); assay type: cell-based, human; conditions: 48 h; for Relative Caspase activation: normalized to vehicle, replicates
Experimental: Viable cells were counted by CellTiter-Fluor Assay (Promega) according to manufacturer’s protocol, and all fluorescence values were corrected by a no-cell control. For Caspase activation assays, SET-2 cells were cultured for 48 h at 10^6 cells mL^−1 with various concentration of LP-182 or vehicle (DMSO). Caspase activity was measured by Caspase-Glo 3/7 assay (Promega) according to the manufacturer’s protocol, and all luminescence values were corrected by a no-cell control. Dose response proliferation and Caspase activation data was normalized to vehicle treated control cells and analyzed by non-linear regression for determination of IC50 values. Data was generated from n = 3 independent experiments performed in replicate.

[2] = system: GFP-positive MPL^W515L cells; assay: MPL^W515L MF mouse model Study 2: GFP-positive cell frequencies; assay type: in vivo; conditions: Study 2, MPL^W515L mice, oral 400 mg kg^−1 daily, 14 d
Experimental: (§1) The human megakaryoblastic cell line, SET-2 (ATCC), was maintained in RPMI 1640 supplemented with 20% FBS and incubated for 16 h at 10^6 cells mL^−1 with LP-182 or vehicle (DMSO; dimethyl sulfoxide), then washed in ice-cold PBS, and collected for flow cytometry analysis. Single-cell suspensions of mouse spleen were prepared from MPL^W515L MF mice (below) in RPMI 1640 supplemented with 5% FCS. Red blood cells were lysed by ammonium chloride-mediated red cell lysis (RCL) buffer and passed through a nylon mesh, and then cells were counted. For intracellular phospho-protein staining, SET-2 or spleen cells were fixed and then permeabilized using BD Phospho-flow fixation buffer and Perm-Buffer III (BD biosciences) according to the manufacturer’s protocol. Intracellular phospho-protein staining was performed using fluorochrome-conjugated antibodies, pAKT (pS473)-Alexa Fluor 647 (MB89-61) or pERK1/2 (pT202/pY204)-Alexa Fluor 647 (20 A). […] Flow cytometry was performed on a FACS Fortessa (Becton, Dickinson and Co.) using FACSDiVa software, and data analyzed using FlowJo software (Tree Star). […]
(§2) Generation of the MPL^W515L mutant MF mouse model was similar to previously described methods. […] Development of MF was evaluated by spleen volumes using MRI beginning ~14 d following bone marrow transplantation (BMT) as outlined below, continuing weekly until end of the study. […]

[3] = system: MPL^W515L mouse model of myelofibrosis; assay: MPL^W515L MF mouse model: immune cell numbers in spleen; assay type: in vivo; conditions: MPL^W515L mice, oral 400 mg kg^−1 daily, 28 d
Experimental: as §1, §2

[4] = Compound quantitation in blood and mesenteric lymph nodes; assay type: in vivo, mouse; conditions: female, CD-1, mouse, mesenteric lymph nodes; mice, 30 min after oral 100-1000 mg kg^−1
Experimental: Whole blood and mesenteric lymph nodes were collected either 30 min or 4 h following compound administration and stored at −20 °C until future processing and analysis by the University of Michigan Pharmacokinetics Core as above, or as outlined below, to determine compound concentrations in each tissue. […] Data was generated from n ≥ 4 individual animals per compound per study group or dose.
Briefly, acetonitrile was added to a final concentration of 60–80% to bone marrow, whole blood, plasma, lymphatic fluid, lymphatic proteo-lipid sub-fractions, or mesenteric lymph node samples for compound extraction. Extraction was performed by shaking and/or bead rupture using a Precellys Evolution tissue homogenizer (Bertin Technologies SAS). […] Optimization of MS and MS/MS parameters for MRM quantitation and maximum sensitivity of individual compounds was performed using SCIEX Analyst software (AB Sciex). […] All LC-MS/MS acquisitions were performed with an independent standard curve for each group of analytes and for each individual run. All solvents utilized were of Optima LC-MS Grade (Fisher Scientific). Data was generated from n ≥ 2 individual animals per compound per study condition or dose.

SMILES: O=C(NOCCOCCOCCOCCC(=O)N1CCN(c2cnc3ccc(-c4cnc(Cl)c(NS(=O)(=O)c5ccc(F)cc5)c4)cc3n2)CC1)c1ccc(F)c(F)c1Nc1ccc(I)cc1F [LP-182, N-(2-(2-(2-(3-(4-(7-(6-chloro-5-((4-fluorophenyl)sulfonamido)pyridin-3-yl)quinoxalin-2-yl)piperazin-1-yl)-3-oxopropoxy)ethoxy)ethoxy)ethoxy)-3,4-difluoro-2-((2-fluoro-4-iodophenyl)amino)benzamide]
- apoptotic cell death (Caspase activation) [1]: initiated apoptotic cell death
- Relative Caspase activation ([1]; LP-182 5 µM): 1.094 and 1.105 and 1.123 and 1.124 and 1.108 and 1.081
- Relative Caspase activation ([1]; LP-182 10 µM): 1.411 and 1.334 and 1.453 and 1.372 and 1.41 and 1.477
- Relative Caspase activation ([1]; LP-182 20 µM): 1.934 and 1.9571 and 1.914 and 1.975 and 2.004 and 1.977
- Relative Caspase activation ([1]; LP-182 40 µM): 2.054 and 1.793 and 2.072 and 2.115 and 2.193 and 2.206
- GFP-positive MPL^W515L neutrophil frequency [2]: reduced
- cell numbers of neutrophils (Neu) and megakaryocytes (MK) in the spleen [3]: decreased cell numbers
- concentration at 30 min [4]: 5 to 15 µM
